Tests used:
[1] = target: Mitogen-activated protein kinase 3 (Homo sapiens, UniProt P27361); experiment: DRUGMATRIX: Protein Serine/Threonine Kinase, ERK1 enzyme inhibition (substrate: Myelin Basic Protein); parameters: species or system Escherichia coli; conditions: Not Active = under 50% inhibition at 10 µM
[2] = target: Cytochrome P450 3A4 (Homo sapiens, UniProt P08684); conditions: bti-tn-5b1-4; further: in other assays of this panel Not Active means under 50% inhibition at 10 µM
[3] = DRUGMATRIX: Imidazoline I2, Central radioligand binding (ligand: [3H] Idazoxan); format: cell membranes, Rattus norvegicus, Wistar, Cerebral cortex, Membrane; conditions: Not Active = under 50% inhibition at 10 µM
[4] = target: Beta-1 adrenergic receptor (Homo sapiens, UniProt P08588); experiment: DRUGMATRIX: Adrenergic beta1 radioligand binding (ligand: [125I] Cyanopindolol); format: cell membranes, CHO-K1, Membrane; conditions: cho-k1; Not Active = under 50% inhibition at 10 µM
Beta-1 adrenergic receptor, sequence (P08588 whole entry): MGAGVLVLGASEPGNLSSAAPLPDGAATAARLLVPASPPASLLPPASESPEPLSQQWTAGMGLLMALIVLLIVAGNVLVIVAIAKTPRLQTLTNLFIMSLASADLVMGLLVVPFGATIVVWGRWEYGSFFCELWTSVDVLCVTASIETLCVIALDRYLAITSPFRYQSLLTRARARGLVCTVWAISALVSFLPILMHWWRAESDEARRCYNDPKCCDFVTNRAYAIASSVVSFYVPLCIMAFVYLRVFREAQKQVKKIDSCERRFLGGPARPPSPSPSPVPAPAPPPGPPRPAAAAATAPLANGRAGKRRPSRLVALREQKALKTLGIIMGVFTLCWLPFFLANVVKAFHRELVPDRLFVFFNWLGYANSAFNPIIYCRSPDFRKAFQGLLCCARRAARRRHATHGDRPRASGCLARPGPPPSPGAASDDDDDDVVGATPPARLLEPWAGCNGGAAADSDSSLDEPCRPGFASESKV

[5] = target: T1, Receptor-type tyrosine-protein phosphatase C (Homo sapiens, UniProt P08575); parameters: species or system Escherichia coli;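 further: inhibition of CD45 enzyme activity measured using DiFMUP as substrate; in other assays of this panel Not Active means under 50% inhibition at 10 µM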
T1 sequence (P08575 whole entry): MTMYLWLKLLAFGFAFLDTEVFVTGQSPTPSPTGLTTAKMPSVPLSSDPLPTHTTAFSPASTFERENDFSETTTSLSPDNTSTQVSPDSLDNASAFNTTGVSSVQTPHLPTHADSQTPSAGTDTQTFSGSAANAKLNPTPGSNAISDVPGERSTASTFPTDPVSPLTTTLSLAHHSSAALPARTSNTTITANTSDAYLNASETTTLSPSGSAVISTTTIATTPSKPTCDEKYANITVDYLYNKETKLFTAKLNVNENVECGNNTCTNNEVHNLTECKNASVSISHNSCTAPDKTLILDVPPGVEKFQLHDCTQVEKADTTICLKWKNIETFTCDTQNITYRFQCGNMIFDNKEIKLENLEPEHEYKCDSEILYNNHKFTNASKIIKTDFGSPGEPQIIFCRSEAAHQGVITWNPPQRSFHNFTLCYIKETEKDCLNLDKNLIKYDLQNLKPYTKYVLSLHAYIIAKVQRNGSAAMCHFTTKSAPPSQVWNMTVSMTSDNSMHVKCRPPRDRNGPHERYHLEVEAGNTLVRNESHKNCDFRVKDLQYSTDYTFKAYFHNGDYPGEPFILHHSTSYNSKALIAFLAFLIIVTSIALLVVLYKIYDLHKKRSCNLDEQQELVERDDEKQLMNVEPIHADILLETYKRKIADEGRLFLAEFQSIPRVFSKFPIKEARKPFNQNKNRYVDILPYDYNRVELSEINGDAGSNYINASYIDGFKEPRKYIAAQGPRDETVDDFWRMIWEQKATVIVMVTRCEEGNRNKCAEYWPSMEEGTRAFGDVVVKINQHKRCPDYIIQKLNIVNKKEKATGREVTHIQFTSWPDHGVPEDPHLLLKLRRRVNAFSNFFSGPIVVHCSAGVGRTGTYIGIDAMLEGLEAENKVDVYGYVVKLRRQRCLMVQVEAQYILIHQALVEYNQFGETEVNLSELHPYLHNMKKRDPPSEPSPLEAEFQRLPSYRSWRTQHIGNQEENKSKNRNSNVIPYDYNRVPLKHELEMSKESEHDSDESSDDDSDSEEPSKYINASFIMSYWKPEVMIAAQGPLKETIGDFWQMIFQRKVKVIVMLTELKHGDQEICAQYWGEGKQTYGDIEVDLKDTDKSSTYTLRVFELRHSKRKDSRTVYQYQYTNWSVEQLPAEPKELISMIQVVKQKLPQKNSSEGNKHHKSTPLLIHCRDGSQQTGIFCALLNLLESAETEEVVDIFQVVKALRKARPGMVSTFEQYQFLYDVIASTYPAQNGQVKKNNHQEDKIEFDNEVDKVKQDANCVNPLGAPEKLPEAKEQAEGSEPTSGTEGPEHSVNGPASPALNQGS

[6] = target: T2, B2 bradykinin receptor (Homo sapiens, UniProt P30411); format: cell membranes, Membrane; conditions: chem-1; further: in other assays of this panel Not Active means under 50% inhibition at 10 µM
T2 sequence (P30411 whole entry): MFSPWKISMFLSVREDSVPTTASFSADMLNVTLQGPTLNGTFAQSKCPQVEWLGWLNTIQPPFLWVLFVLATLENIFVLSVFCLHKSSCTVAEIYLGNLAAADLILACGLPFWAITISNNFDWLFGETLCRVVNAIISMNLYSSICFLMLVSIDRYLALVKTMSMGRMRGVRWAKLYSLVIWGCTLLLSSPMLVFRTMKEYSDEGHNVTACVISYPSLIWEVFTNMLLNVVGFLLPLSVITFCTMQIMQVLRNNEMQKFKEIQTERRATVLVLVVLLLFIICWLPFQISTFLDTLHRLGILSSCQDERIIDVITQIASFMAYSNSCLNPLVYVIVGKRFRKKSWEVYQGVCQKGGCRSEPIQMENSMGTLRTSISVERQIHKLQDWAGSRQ

[7] = DRUGMATRIX: Sigma2 radioligand binding (ligand: [3H] Ifenprodil); format: cell membranes, Rattus norvegicus, Wistar, Brain, Membrane; conditions: Not Active = under 50% inhibition at 10 µM
[8] = target: T3, D(4) dopamine receptor (Homo sapiens, UniProt P21917); experiment: DRUGMATRIX: Dopamine D4.2 radioligand binding (ligand: [3H] Spiperone); format: cell membranes, Membrane; conditions: cho-k1; Not Active = under 50% inhibition at 10 µM
T3 sequence (P21917 whole entry): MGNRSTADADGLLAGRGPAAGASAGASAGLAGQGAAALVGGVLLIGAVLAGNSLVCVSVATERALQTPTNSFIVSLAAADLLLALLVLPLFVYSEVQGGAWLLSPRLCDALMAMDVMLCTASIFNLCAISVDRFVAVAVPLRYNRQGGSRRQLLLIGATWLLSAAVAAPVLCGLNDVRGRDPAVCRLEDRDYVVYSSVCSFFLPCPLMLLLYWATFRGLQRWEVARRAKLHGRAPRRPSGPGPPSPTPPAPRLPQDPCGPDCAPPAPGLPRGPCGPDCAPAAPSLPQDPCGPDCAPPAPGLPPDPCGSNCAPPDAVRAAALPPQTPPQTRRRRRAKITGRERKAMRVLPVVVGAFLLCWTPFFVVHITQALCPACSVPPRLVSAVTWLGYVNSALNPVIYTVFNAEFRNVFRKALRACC

[9] = DRUGMATRIX: Serotonin (5-Hydroxytryptamine) 5-HT3 radioligand binding (ligand: [3H] GR-65630); format: cell membranes, Membrane; conditions: hek293; Not Active = under 50% inhibition at 10 µM
[10] = target: T4, Cathepsin G (Homo sapiens, UniProt P08311); format: tissue-based; conditions: neutrophil;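 further: inhibition of Cathepsin G enzyme activity, tested on an AMC-conjugated peptide substrate; in other assays of this panel Not Active means under 50% inhibition at 10 µM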
T4 sequence (P08311 whole entry): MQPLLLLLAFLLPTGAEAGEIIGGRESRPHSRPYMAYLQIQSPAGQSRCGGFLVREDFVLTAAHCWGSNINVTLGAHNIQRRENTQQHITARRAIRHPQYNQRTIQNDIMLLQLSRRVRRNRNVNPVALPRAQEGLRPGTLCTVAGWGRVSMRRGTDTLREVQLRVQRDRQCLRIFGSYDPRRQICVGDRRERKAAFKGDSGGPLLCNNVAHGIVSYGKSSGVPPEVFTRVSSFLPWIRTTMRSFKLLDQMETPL

Mitogen-activated protein kinase 3, sequence (P27361 whole entry): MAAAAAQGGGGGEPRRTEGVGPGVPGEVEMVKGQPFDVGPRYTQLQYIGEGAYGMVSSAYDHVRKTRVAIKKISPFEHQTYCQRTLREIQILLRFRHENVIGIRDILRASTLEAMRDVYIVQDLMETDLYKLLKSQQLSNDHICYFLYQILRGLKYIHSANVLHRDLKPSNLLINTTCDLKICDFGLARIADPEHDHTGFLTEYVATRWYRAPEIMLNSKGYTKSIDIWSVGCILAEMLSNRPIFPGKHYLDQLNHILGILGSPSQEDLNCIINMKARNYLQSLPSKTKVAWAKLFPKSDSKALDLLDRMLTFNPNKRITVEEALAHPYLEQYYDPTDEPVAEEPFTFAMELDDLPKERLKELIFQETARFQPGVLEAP
Cytochrome P450 3A4, sequence (P08684 whole entry): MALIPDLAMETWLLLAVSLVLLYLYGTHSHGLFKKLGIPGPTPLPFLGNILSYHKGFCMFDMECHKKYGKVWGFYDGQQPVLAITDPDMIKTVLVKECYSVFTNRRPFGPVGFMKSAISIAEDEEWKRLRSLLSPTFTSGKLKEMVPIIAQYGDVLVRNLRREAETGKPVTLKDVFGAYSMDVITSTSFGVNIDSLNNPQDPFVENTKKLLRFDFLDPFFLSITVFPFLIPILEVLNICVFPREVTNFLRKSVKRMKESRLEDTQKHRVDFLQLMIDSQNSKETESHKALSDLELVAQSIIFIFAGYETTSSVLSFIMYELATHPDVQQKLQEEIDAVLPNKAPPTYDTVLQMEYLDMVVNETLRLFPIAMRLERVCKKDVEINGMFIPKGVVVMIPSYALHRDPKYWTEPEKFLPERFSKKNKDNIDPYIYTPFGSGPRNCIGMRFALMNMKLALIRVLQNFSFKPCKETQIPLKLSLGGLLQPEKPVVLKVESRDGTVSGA

Cc1onc(-c2ccccc2)c1-c1ccc(S(N)(=O)=O)cc1 [VALDECOXIB]
Not Active: IC50 [1] | IC50 [2] | Ki [2] | IC50 [3] | Ki [3] | IC50 [4] | IC50 [5] | IC50 [6] | IC50 [7] | Ki [7] | IC50 [8] | IC50 [9] | Ki [9] | IC50 [10]

CC[C@]1(O)C[C@@H]2CN(CCc3c([nH]c4ccccc34)[C@@](C(=O)OC)(c3cc4c(cc3OC)N(C)[C@H]3[C@@](O)(C(=O)OC)[C@H](OC(C)=O)[C@]5(CC)C=CCN6CC[C@]43[C@@H]65)C2)C1 [VINBLASTINE]
Not Active: IC50 [1] | IC50 [2] | Ki [2] | IC50 [3] | Ki [3] | IC50 [4] | IC50 [5] | IC50 [6] | IC50 [7] | Ki [7] | IC50 [8] | IC50 [9] | Ki [9] | IC50 [10]

CC(=O)CC(c1ccccc1)c1c(O)c2ccccc2oc1=O (stereo not given) [WARFARIN]
Not Active: IC50 [1] | IC50 [2] | Ki [2] | IC50 [3] | Ki [3] | IC50 [4] | IC50 [5] | IC50 [6] | IC50 [7] | Ki [7] | IC50 [8] | IC50 [9] | Ki [9] | IC50 [10]

C[C@@H](N)[C@H]1CC[C@H](C(=O)Nc2ccncc2)CC1 [Y-27632]
Not Active: IC50 [1] | IC50 [2] | Ki [2] | IC50 [3] | Ki [3] | IC50 [4] | IC50 [5] | IC50 [6] | IC50 [7] | Ki [7] | IC50 [8] | IC50 [9] | Ki [9] | IC50 [10]

[Cl-].[Cl-].[Zn+2] [ZINC CHLORIDE]
Not Active: IC50 [1] | IC50 [2] | Ki [2] | IC50 [3] | Ki [3] | IC50 [4] | IC50 [5] | IC50 [6] | IC50 [7] | Ki [7] | IC50 [8] | IC50 [9] | Ki [9] | IC50 [10]

Reference: ChEMBL document CHEMBL1909046, “DrugMatrix in vitro pharmacology data”
